# Measurements reported in patent publication US20170274014A1, “COMBINATIONS OF LOW, IMMUNE ENHANCING, DOSES OF MTOR INHIBITORS AND CARS” (Novartis AG, priority 2014, published 2017).
# Legend:
# [1] = target: mTOR (Homo sapiens, UniProt P42345); conditions: low concentration; cited from earlier work
# [2] = tested on: PI3K/mTOR; conditions: relatively higher concentrations; cited from earlier work
# [3] = mice; cited from earlier work
# [4] = tested on: influenza vaccination; conditions: elderly mice, 6 weeks of treatment; cited from earlier work
# [5] = tested on: influenza; conditions: mice vaccinated against influenza in the presence of rapamycin; cited from earlier work
# [6] = old mice; cited from earlier work
# [7] = tested on: NFAT inducible promoter driven luciferase activity; format: cell-based; conditions: PDL1-Fc coated plate as compared to control treatment by IgG1-Fc; Jurkat JNL cells
# Method: Jurkat cells with NFAT-LUC reporter (JNL) were grown to the density of 0.5×10^6/ml in Jurket cell growth media with puromycin at 0.5 μg/ml. For each transfection 3×10^6 cells were spin down at 100 g for 10 minutes. Four μg DNA per construct were used per transfection. Amaxa Nucleofector solution V and supplement I was mixed and 100 μl was added into the tube with DNA construct. The mixture was then added to the cells and transferred to the electroporation cuvette. Electroporation was done under setting X-001 using Amaxa Nucleofector II Device. 0.5 ml of growth media was added immediately after electroporation and the mixture were transferred into 2 ml growth media in one well of the 6-well plate. After two hours, the rapalogue compound at various concentrations was added to cells. The cells were applied to tissue culture plate wells that were coated by the target. Tissue culture plate was coated with 5 μg/ml of PDL1-Fc or IgG1-Fc or any target for 2 hrs at 37° C., then blocked with the blocking buffer (DPBS with 5% serum) for 30 minutes. The transfected cells were added to the target plate with 100 μl per well and incubated further for 16 hrs. Luciferase One Glo reagent 100 μl was added per well. The samples were incubated for 5 min at 37° C. and then luminescence is measured using Envision plate reader.
compound,measurement,setting,value
"Cn1c(=O)n(-c2ccc(C(C)(C)C#N)cc2)c2c3cc(-c4cnc5ccccc5c4)ccc3ncc21 [BEZ235, 2-methyl-2-[4-(3-methyl-2-oxo-8-quinolin-3-yl-2,3-dihydro-imidazo[4,5-c]quinolin-1-yl)-phenyl]-propionitrile]",concentration at which mTOR inhibition predominates,[1],less than 100 nmol/L
same,concentration giving dual PI3K/mTOR inhibition,[2],approximately 500 nmol/L
CO[C@H]1C[C@@H]2CC[C@@H](C)[C@@](O)(O2)C(=O)C(=O)N2CCCC[C@H]2C(=O)O[C@H]([C@H](C)C[C@@H]2CC[C@@H](O)[C@H](OC)C2)CC(=O)[C@H](C)/C=C(\C)[C@@H](O)[C@@H](OC)C(=O)[C@H](C)C[C@H](C)/C=C/C=C/C=C/1C [rapamycin],Lifespan,[3],extend lifespan
same,Response to influenza vaccination,[4],improved response to influenza vaccination
same,Serologic response to influenza as compared to placebo,[5],broader serologic response
same,Spontaneous physical activity,[6],increases spontaneous physical activity
"PD1 CAR: CAR construct PD1-ECD-TM-4-1BB-CD3zeta, SEQ ID NO: 26",Activation of NFAT inducible promoter driven luciferase activity,[7],significant PD1 induced activation
